# Source: patent publication EP3459551A1, “USE OF ARSENIC TRIOXIDE IN THE PREVENTION OR TREATMENT OF DISEASES ASSOCIATED WITH TYPE I […] ACTIVATION” (Medsenic, priority 2017, dated 2019)
# Legend:
# naïve CD4+ T cells = experiment: pDC capacity to polarize naïve CD4+ T cells (intracellular staining and ELISA of MLR supernatants); assay type: cell-based, human; settings: pDCs previously treated with ATO
# Procedure: (§1) pDCs were isolated from fresh peripheral blood mononuclear cells (PBMCs) by magnetic selection. Cell viability, phenotype and intracellular cytokine analyses were performed with flow cytometry. ELISA was used to analyze the cytokine concentration in supernatants.
# In addition, the effect of ATO treatment on pDC capacity to polarize naïve CD4+ T cells was assessed.
# [1] = tested on: CD4+ naïve T cells co-cultured with ATO-treated activated pDCs; experiment: Mixed lymphocyte reaction (MLR) of pDCs and CD4+ naïve T cells: T cell proliferation; assay type: cell-based, human; settings: pDCs treated with 0.5µM of ATO, n=4; 0µM control 44.97±2.53%
# Procedure: as §1
# In order to evaluate whether ATO can influence the capability of pDCs to activate T cells, mixed lymphocyte reaction (MLR) of pDCs and CD4+ naïve T cells were performed.
# human pDCs = experiment: Viability of human pDCs (Fixable Viability Dye, flow cytometry); assay type: cell-based; settings: 24h of culture
# Procedure: as §1
# First, the effect of ATO on the viability of human pDCs was investigated. […] (% of living pDCs: 56.36±6.44% with 0µM vs 32.02±7.12% with 1µM of ATO, p=0.039)
# activated pDCs = experiment: Phenotype of activated pDCs (flow cytometry of maturation markers); assay type: cell-based, human
# Procedure: as §1
# Given the above results, it was addressed whether activated pDCs phenotype could be similarly impacted by ATO treatment.
# [2] = tested on: pDCs after TLR9 activation; experiment: Cytokine and chemokine secretion by pDCs after TLR9 activation (ELISA of supernatants); assay type: cell-based, human; settings: 0.5µM of ATO, 24h, n=4
# Procedure: as §1
# Then, the effect of low dose ATO (corresponding to a non-lethal, therapeutic dose) on cytokine and chemokine secretion by pDCs after TLR9 activation was studied. ELISA test of supernatants of sorted pDCs cultured with ATO for 24h were studied (n=4).
# [3] = 24h culture with non-lethal doses of ATO
substance,measurement,setting,value
arsenic trioxide [ATO],IL-10 concentration in the supernatants of MLR,naïve CD4+ T cells; ELISA,no change
same,"IL-17, IL-22 concentrations in the supernatants of MLR",naïve CD4+ T cells; ELISA,significant decrease
same,IL-22 positive cells in T cells,"naïve CD4+ T cells; intracellular staining, untreated 11.67%",7.22%
same,IFN-γ positive cells in T cells,"naïve CD4+ T cells; intracellular staining, untreated 41.13%",29.09%
same,TNF-α positive cells in T cells,"naïve CD4+ T cells; intracellular staining, untreated 47.10%",35.40%
same,% of proliferating T cells,[1],37.98±2.11%
same,% of living pDCs,"human pDCs; 1µM of ATO, 0µM control 56.36±6.44%, p=0.039",32.02±7.12%
same,ATO concentration that significantly decreased viability of both non-activated and activated pDCs,human pDCs,≥ 1 µM
same,PD-L1+ pDCs,"activated pDCs; 0.5µM of ATO, 24h, n=4, 0µM control 61.44±2.37%, p=0.005",73.27 ±3.72%
same,% of CD86+ and CCR7+ pDCs,activated pDCs; [3],significant decrease
same,"relative fluorescence intensity (RFI) of CD80, CD86, and HLA-DR expressions",activated pDCs; [3],significant decrease
same,RFI for PD-L1 expression,"activated pDCs; 24h culture with non-lethal doses of ATO, p=0.09",increase
same,IL-6 secretion,"[2]; 0µM control 2.31 ±0.39ng/ml, p=0.029",1.66 ± 0.32 ng/mL
same,TNF-α secretion,"[2]; 0µM control 6.23±0.92ng/ml, p=0.005",3.99 ± 0.79 ng/mL
same,CXCL10 secretion,"[2]; 0µM control 13.06±0.98ng/ml, p=0.036",9.44 ± 0.97 ng/mL
same,IFN-α secretion,"[2]; 0µM control 53.24±6.61ng/ml, p=0.004",25.81 ± 7.70 ng/mL
